Data on five compounds can be found in patent US4389412A, “Substituted cyclopropanecarboxylic acid esters and pesticidal compositions containing the same as active ingredient” (priority 1979, dated 1983).

Values after ≈ are worked out from the molar mass of the structure shown. “Also recorded” adds a separate entry of the source.

One data set concerns pests. The experiment in a line: Pesticidal effectiveness, overall. The note with it: in vivo. The text has this:
The pesticidal activity of the compounds according to this invention against green rice leafhoppers (Nephotettix cincticeps Uhler), rice stem borers (Chilo suppressalis Walker), tobacco cutworms (Prodenia litura […]) and houseflies (Musca domestica), as examples of the pests against which the same compounds are considered effective, the acute toxicity data on the same compounds as determined in rat by the oral route and the median tolerance limit (TLm) data on the same compounds as determined in killifish (Orizias latipes) and guppies (Lebistes reticulatus) are shown in Table 1 alongside the corresponding values for various control compounds. The pesticidal effects were determined by the procedures set forth in Test Examples 1 through 4, while the acute toxicity to rat was determined by the procedure set forth in Test Example 9 and the toxicity to fish was determined by the procedures set forth in Test Examples 6 and 7, all those Examples appearing hereinafter.

In data set [1] the test system is water-fleas (Daphnia pulex). The data set can be described thus: Toxicity test with water-fleas. It counts as in vivo. The note with it: 25±1° C. As to the method:
Toxicity test with water-fleas (Daphnia pulex)
An acetone solution of one of the test compounds as mentioned in Table 10 and Tween-20 (the same surfactant as mentioned hereinbefore) was prepared. To 100 ml of water in a high-walled dish (9 cm in diameter, 7 cm deep) was added the above acetone solution. The mixture was stirred thoroughly to prepare an aqueous solution containing the test compound in a predetermined concentration. This was used as a test water. Twenty water-fleas (Daphnia pulex) were released into each test water which was maintained at 25±1° C. After 6 hours, the water-fleas were examined for deaths. The TLm (median tolerance limit, ppm) was determined.

The test system of a further data set is carp (Cyprinus carpio L). The experiment in a line: Fish toxicity test with carp. The data set is classed as in vivo. The note with it: 48 hrs., 21±1° C.; 2880 min. Summed up: (§1)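 Compound in acetone with Tween-20 dispersed in 50 L aerated water at a set concentration; five carp (about 6 g, 6 cm) exposed at 21±1° C. Deaths checked after 48 h, and TLm (median tolerance limit, ppm) determined.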

The subject of data set [2] is brown planthoppers (Nilaparvata lugens Stal). The experiment in a line: Utility Example-1: LC50 on adult brown planthoppers on dipped rice plants. It counts as in vivo. The note with it: 25° C.; for Pesticidal activity LC50: 24 hours, 1440 min. The procedure, abridged: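 Rice plants 4 weeks from sowing were dipped in water-diluted 1% emulsifiable concentrate at set concentrations and air-dried. Thirty adult N. lugens were caged on each pot, held at 25 °C.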

The test system of the next data set is fish. The experiment in a line: Fish toxicity safety factor (TLm divided by maximum concentration in cover water). On the set-up: species or system carp. The note with it: TLm / maximum concentration in cover water at LC50 application (100 l per 10 ares, 5 cm depth). The procedure, abridged:
(§2)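 Calculated index: carp TLm (ppm) divided by the maximum compound concentration expected in paddy cover water. That concentration assumes 100 l of solution at the pest LC50 applied per 10 ares onto 5 cm deep cover water, all of it entering the water.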

A further data set concerns carp and water flea. The experiment in a line: Fish toxicity ranking according to Japanese regulations. Set-up: species or system Cyprinus carpio L; Daphnia pulex. The note with it: from TLm for carp and water flea. Summed up:
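Ranking per Japanese agrochemical regulations from median tolerance limits: A = carp TLm (48 hrs.) >10 ppm and water flea TLm (3 hrs.) >0.5 ppm; B = carp 10-0.5 ppm, or carp >10 ppm with water flea <0.5 ppm; C = carp TLm (48 hrs.) <0.5 ppm.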

Data set [3] concerns green rice leafhoppers (Nephotettix cincticeps Uhler). The experiment in a line: Mortality test with green rice leafhoppers by topical application method. As to the method: Mortality test with green rice leafhoppers (Nephotettix cincticeps Uhler) by topical application method
Then, the insects were kept at 25° C. with access to rice plant seedlings. The insects were used in groups of 15 individuals each.

For the next data set, the system named is crop plants. The data set can be described thus: Phytotoxicity test. The note with it: 2,000 ppm solution on leaves, after 10 days. It counts as in vivo. The text has this: A 2,000 ppm solution of each of the cis- and trans-isomers and a 50:50 mixture of cis- and trans-isomers of Compound (1) and of Compound (2), and a 50:50 mixture of the cis- and trans-isomers of Compound (B) and Compound (E) was applied to the leaves of the following crop plants.
After 10 days, the crop plants were examined for their phytotoxicities.

For data set [4], the system named is houseflies (Musca domestica). The data set can be described thus: Mortality test with houseflies by topical application method. The note with it: 24 h.
Data set [5] is described as follows: Fish toxicity test with guppies. The note with it: guppy, water, guppies, 20° C., read-out: TLm (48 hrs.). It counts as in vivo, Lebistes reticulatus. As to the method: (§3) Fish toxicity test with guppies (Lebistes reticulatus)
(§4) To 5 liters of water were added 250 mg of Sorpol SM-200 (trademark, Toho Chemical Co., Ltd.) as a surfactant and 2.5 ml of an acetone solution containing one of the test compounds in a predetermined concentration. The mixture was stirred thoroughly to prepare a test water. Ten female guppies (Lebistes reticulatus) of from 3 to 4 months of age were released into the test water which was maintained at 20° C. and the TLm (median tolerance limit, ppm) was determined.

Data set [6] deals with guppies (Lebistes reticulatus). The data set can be described thus: Fish toxicity test with guppies. The data set is classed as in vivo. The note with it: Table 1; 48 hrs. As to the method: as §3, §4
A short description of data set [7]: Acute toxicity test in rat by the oral route. It counts as in vivo. The note with it: in vivo, male rat, in olive oil, after 7 days. The source says: Acute toxicity test in rat by the oral route
Data set [8] in a line: Fish toxicity test with carp. The data set is classed as in vivo, Cyprinus carpio L. The note with it: carp, water, 48 hrs., 21±1° C.; read-out: TLm, Carp (48 hrs.). Summed up:
as §1

Data set [9] relates to tobacco cutworms (Prodenia litura Fabricius). The experiment in a line: Mortality test with tobacco cutworms by topical application method. The note with it: 24 h, read-out: Pesticidal effect, tobacco cutworm. It counts as in vivo. As to the method: Mortality test with tobacco cutworms (Prodenia litura Fabricius) by topical application method
Using a microsyringe, 0.5 μl of the above solution was dripped onto the thoracic adbominal region of each of 3-instar tobacco cutworm (Prodenia litura Fabricius) larvae. […] The test larvae were used in groups of 20 individuals each.

Data set [10] in a line: Fish toxicity safety factor (TLm divided by maximum concentration in cover water). Set-up: species or system carp. The note with it: in vivo, TLm / maximum concentration in cover water at LC50 application (100 l per 10 ares, 5 cm depth). The procedure, abridged:
as §2

For data set [11], the system named is rice stem borers (Chilo suppressalis Walker). The experiment in a line: Mortality test with rice stem borers by topical application method. The data set is classed as in vivo. The note with it: 24 h. As to the method:
Mortality test with rice stem borers (Chilo suppressalis Walker) by topical application method
Using a microsyringe, 0.5 μl of the above solution was applied to the thoracic abdominal region of each final-instar larva of rice stem borer (Chilo suppressalis Walker). […] The test larvae were used in groups of 20 individuals each.

Where [12] appears, read: Nephotettix cincticeps, in Oryza sativa, 24 h.

Take `CC1(C)C(C=C(Cl)Cl)C1C(=O)OCc1cccc(Oc2ccc(Cl)cc2)c1` (centres unmarked) [Compound (1), 3-(4-chlorophenoxy)benzyl 2,2-dimethyl-3-(2,2-dichlorovinyl)cyclopropanecarboxylate]: the “pesticidal effectiveness in words” value in the data set on pests is “excellent pesticidal activity against both the sensitive and resistant strains of pests; also recorded: at least equivalent or superior in pesticidal effectiveness to control compounds (A), (B), (C), (D), (E), (F), (G) and (H)”.

Consider `C#CC(OC(=O)C1C(C=C(Cl)Cl)C1(C)C)c1cccc(Oc2ccc(Cl)cc2)c1` (stereo not drawn) [Compound (2) cis-/trans- = 10:90], for which the “TLm, Water-flea (6 hrs.)” value in data set [1] was above 40 ppm. The “TLm, Carp (48 hrs.)” value in the data set on carp (Cyprinus carpio L) was determined as 7.2 ppm. In addition, the “Pesticidal activity LC50” value in data set [2] was found to be 180 ppm. Besides, the “Fish toxicity safety factor” value in the data set with fish is given as 20. Also, the Ranking entry in the data set on carp and water flea is “B (TLm (48 hrs.) value 10-0.5 ppm for carp; or TLm (48 hrs.) value >10 ppm for carp and TLm (3 hrs.) value <0.5 ppm for water flea, wherein appreciable toxicity to fishes is not observed by usual application but may be observed when applied to wide area at one time.)”.

As for `C#CC(OC(=O)C1C(C=C(Cl)Cl)C1(C)C)c1cccc(Oc2ccc(Cl)cc2)c1` (stereo not drawn) [Compound (2) cis-/trans- = 30:70], the “TLm, Water-flea (6 hrs.)” value in data set [1] was above 40 ppm. For the same compound, the “TLm, Carp (48 hrs.)” value in the data set with carp (Cyprinus carpio L) is on record as 4.9 ppm. In addition, in data set [2], the “Pesticidal activity LC50” value turned out to be 180 ppm. Besides, the “Fish toxicity safety factor” value with fish stood at 13.6. Moreover, the “LD50 (median lethal dose)” value in [3] (green rice leafhoppers, 1440 min) was 0.40 µg/g. Further, the Ranking entry in the data set with carp and water flea is “B (TLm (48 hrs.) value 10-0.5 ppm for carp; or TLm (48 hrs.) value >10 ppm for carp and TLm (3 hrs.) value <0.5 ppm for water flea, wherein appreciable toxicity to fishes is not observed by usual application but may be observed when applied to wide area at one time.)”.

Take `C#CC(OC(=O)C1C(C=C(Cl)Cl)C1(C)C)c1cccc(Oc2ccc(Cl)cc2)c1` (stereo not drawn) [Compound (2), 3-(4-chlorophenoxy)-α-ethynylbenzyl 2,2-dimethyl-3-(2,2-dichlorovinyl)cyclopropanecarboxylate]: the “pesticidal effectiveness in words” value in the data set on pests is “excellent pesticidal activity against both the sensitive and resistant strains of pests; also recorded: at least equivalent or superior in pesticidal effectiveness to control compounds (A), (B), (C), (D), (E), (F), (G) and (H)”.

The term LD50 denotes the dose expected to kill half of the subjects tested. As for `CC(C)C(C(=O)OC(C#N)c1cccc(Oc2ccccc2)c1)c1ccc(Cl)cc1` (centres unmarked) [Compound (E), Fenvalerate], the phytotoxicity result with crop plants was “caused chlorosis to each one of the crop plants and did large damage to the same”. Also, in data set [4], the mortality at 0.5 µg/female worked out at 100% and the mortality at 1 µg/female came out at 100%. The mortality at 0.001 mg in [4] (read-out: Pesticidal effect, housefly) worked out at 100%. The LC50 at 48 h in data set [5] was below 0.5 µg/mL. Moreover, the “Toxicity to fish TLm, guppy” value in data set [6] was below 0.5 ppm. This compound registered a median lethal dose (LD50) at 168 h in [7] of 440 mg/kg. In addition, in data set [8], the LC50 at 48 h was found to be 0.0032 µg/mL (≈ 0.00762 µM). The mortality at 0.0001 mg in data set [9] turned out to be 100%. For the same compound, the LC50 in [2] (Nilaparvata lugens, 24 h, read-out: Pesticidal activity LC50) turned out to be 1550 µg/mL (≈ 3690 µM). For the same compound, in [10], the selectivity ratio worked out at 0.001. In addition, in data set [3] (setting [12]), the mortality at 0.01 µg/female was determined as 100%, the mortality at 0.1 µg/female was found to be 100% and the mortality at 1 µg/female is 100%. In [3] (Nephotettix cincticeps, in Oryza sativa, 24 h, read-out: Pesticidal effect, green rice leafhopper), the mortality at 10 ng came to 100%. In data set [11], this compound gave a mortality at 1 µg/larva of 100% and a mortality at 10 µg/larva of 100%. Further, the mortality at 0.001 mg in data set [11] (read-out: Pesticidal effect, rice stem borer) was determined as 100%. In addition, the Ranking result with carp and water flea was “C (TLm (48 hrs.) value <0.5 ppm for carp, wherein toxicity to fishes is so strongly observed by usual application that both the application method and application area are strictly restricted.)”.
